Experimental data reported in patent US20260285850A1, “SUBSTITUTED OXAZOLIDINONES AND IMIDAZOLINONES AS HERBICIDES” (FMC CORPORATION, priority 2023, published 2026).

Experiments:
Format in all cases: in vivo
[1] = tested on: barnyardgrass (Echinochloa crus-galli); test: Test A preemergence soil spray, visual injury rating 0-100; settings: 10 days, 0 = no effect, 100 = complete control
In short: (§1)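 Seeds sown in loam-sand blend got a preemergence directed soil spray, or emerged plants (2-10 cm, one- to two-leaf) got a postemergence spray, of compound in non-phytotoxic solvent with surfactant. After 10 days in greenhouse, injury rated visually versus untreated controls on a 0 (no effect) to 100 (complete control) scale.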

[2] = tested on: palmer (palmer amaranth, palmer pigweed, Amaranthus palmeri); test: as above; settings: 10 days, 0 = no effect, 100 = complete control
In short: as §1

soybean (Glycine max) [3] = test: as above; settings: 10 days, 0 = no effect, 100 = complete control
In short: as §1

[4] = tested on: blackgrass (Alopecurus myosuroides); test: as above; settings: 10 days, 0 = no effect, 100 = complete control
In short: as §1

corn (Zea mays) [5] = test: as above; settings: 10 days, 0 = no effect, 100 = complete control
In short: as §1

[6] = tested on: ryegrass, Italian (italian ryegrass, Lolium multiflorum); test: as above; settings: 10 days, 0 = no effect, 100 = complete control
In short: as §1

kochia (Bassia scoparia) [7] = test: as above; settings: 10 days, 0 = no effect, 100 = complete control
In short: as §1

[8] = tested on: oat, wild (wild oat, Avena fatua); test: as above; settings: 10 days, 0 = no effect, 100 = complete control
In short: as §1

[9] = tested on: wheat (Triticum aestivum); test: as above; settings: 10 days, 0 = no effect, 100 = complete control
In short: as §1

[10] = tested on: ragweed (common ragweed, Ambrosia artemisiifolia); test: as above; settings: 10 days, 0 = no effect, 100 = complete control
In short: as §1

[11] = tested on: barnyardgrass (Echinochloa crusgalli); test: Test B flooded paddy test, visual plant response rating 0-100; settings: 250 g ai/ha, Flood, applied to paddy water, evaluated after 13 days
In short: (§2)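 Each species was raised to two leaves before flooding to a 3 cm depth and dosing the water with compound. Injury was assessed by eye after 13 days under greenhouse conditions.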

rice (Oryza sativa) = test: as above; settings: 250 g ai/ha, Flood, applied to paddy water, evaluated after 13 days
In short: as §2

[12] = tested on: sedge, umbrella (small-flower umbrella sedge, Cyperus difformis); test: as above; settings: 250 g ai/ha, Flood, applied to paddy water, evaluated after 13 days
In short: as §2

[13] = tested on: ducksalad (Heteranthera limosa); test: as above; settings: 250 g ai/ha, Flood, applied to paddy water, evaluated after 13 days
In short: as §2

[14] = tested on: barnyardgrass (Echinochloa crus-galli); test: Test A postemergence application, visual injury rating 0-100; settings: Postemergence
In short: as §1

[15] = tested on: galium (catchweed bedstraw, Galium aparine); test: as above; settings: Postemergence
In short: as §1

[16] = tested on: palmer (palmer amaranth, palmer pigweed, Amaranthus palmeri); test: as above; settings: Postemergence
In short: as §1

soybean (Glycine max) [17] = test: as above; settings: Postemergence
In short: as §1

[18] = tested on: blackgrass (Alopecurus myosuroides); test: as above; settings: Postemergence
In short: as §1

corn (Zea mays) [19] = test: as above; settings: Postemergence
In short: as §1

[20] = tested on: ryegrass, Italian (italian ryegrass, Lolium multiflorum); test: as above; settings: Postemergence
In short: as §1

[21] = tested on: horseweed (Erigeron canadensis); test: as above; settings: Postemergence
In short: as §1

kochia (Bassia scoparia) [22] = test: as above; settings: Postemergence
In short: as §1

[23] = tested on: oat, wild (wild oat, Avena fatua); test: as above; settings: Postemergence
In short: as §1

[24] = tested on: wheat (Triticum aestivum); test: as above; settings: Postemergence
In short: as §1

[25] = tested on: ragweed (common ragweed, Ambrosia artemisiifolia); test: as above; settings: Postemergence
In short: as §1

[26] = 31 g ai/ha, greenhouse 10 days, 0 no effect, 100 complete control
[27] = 125 g ai/ha, 10 days, 0 is no effect, 100 is complete control

CC(C)OC(=O)C1=CCC(NC(=O)C2(C)CN(c3cc(Cl)cc(Cl)c3)C(=O)O2)C1 (stereo not drawn) [Compound 70]
100: Corn plant response rating (0 to 100 scale) (corn (Zea mays) [19]; [27])
40: Kochia plant response rating (0 to 100 scale) (kochia (Bassia scoparia) [7]; 125 g ai/ha)
90: Barnyardgrass plant response rating (0 to 100 scale) ([1]; 125 g ai/ha) | Amaranth, Palmer plant response rating (0 to 100 scale) ([2]; 125 g ai/ha) | Barnyardgrass plant response rating (0 to 100 scale) [14, 26] | Barnyardgrass plant response rating (0 to 100 scale) [14, 27] | Amaranth, Palmer / Pigweed, Palmer plant response rating (0 to 100 scale) [16, 26] | Amaranth, Palmer / Pigweed, Palmer plant response rating (0 to 100 scale) [16, 27] | Soybean plant response rating (0 to 100 scale) (soybean (Glycine max) [17]; [27]) | Corn plant response rating (0 to 100 scale) (corn (Zea mays) [19]; [26]) | Wheat plant response rating (0 to 100 scale) [24, 27]
80: Galium plant response rating (0 to 100 scale) [15, 26] | Galium plant response rating (0 to 100 scale) [15, 27] | Soybean plant response rating (0 to 100 scale) (soybean (Glycine max) [17]; [26]) | Blackgrass plant response rating (0 to 100 scale) [18, 27] | Kochia plant response rating (0 to 100 scale) (kochia (Bassia scoparia) [22]; [26]) | Kochia plant response rating (0 to 100 scale) (kochia (Bassia scoparia) [22]; [27]) | Oat, Wild plant response rating (0 to 100 scale) [23, 27] | Wheat plant response rating (0 to 100 scale) [24, 26]
10: Blackgrass plant response rating (0-100) ([4]; 31 g ai/ha) | Ragweed plant response rating (0-100) ([10]; 31 g ai/ha) | Ragweed plant response rating (0 to 100 scale) ([10]; 125 g ai/ha)
70: Ryegrass, Italian plant response rating (0 to 100 scale) ([6]; 125 g ai/ha) | Wheat plant response rating (0 to 100 scale) ([9]; 125 g ai/ha) | Ryegrass, Italian plant response rating (0 to 100 scale) [20, 26] | Ryegrass, Italian plant response rating (0 to 100 scale) [20, 27]
50: Plant response rating, Barnyardgrass (0 to 100 scale, 0 is no effect and 100 is complete control) [11] | Blackgrass plant response rating (0 to 100 scale) [18, 26] | Ragweed plant response rating (0 to 100 scale) [25, 27]
60: Plant response rating, Rice (0 to 100 scale, 0 is no effect and 100 is complete control) (rice (Oryza sativa))
65: Plant response rating, Ducksalad (0 to 100 scale, 0 is no effect and 100 is complete control) [13]
30: Barnyardgrass plant response rating (0-100) ([1]; 31 g ai/ha) | Amaranth, Palmer plant response rating (0-100) ([2]; 31 g ai/ha) | Soybean plant response rating (0 to 100 scale) (soybean (Glycine max) [3]; 125 g ai/ha) | Blackgrass plant response rating (0 to 100 scale) ([4]; 125 g ai/ha) | Oat, Wild plant response rating (0 to 100 scale) [23, 26]
98: Plant response rating, Sedge, Umbrella (0 to 100 scale, 0 is no effect and 100 is complete control) [12]
0: Soybean plant response rating (0-100) (soybean (Glycine max) [3]; 31 g ai/ha) | Corn plant response rating (0-100) (corn (Zea mays) [5]; 31 g ai/ha) | Ryegrass, Italian plant response rating (0-100) ([6]; 31 g ai/ha) | Kochia plant response rating (0-100) (kochia (Bassia scoparia) [7]; 31 g ai/ha) | Oat, Wild plant response rating (0-100) ([8]; 31 g ai/ha) | Wheat plant response rating (0-100) ([9]; 31 g ai/ha) | Horseweed plant response rating (0 to 100 scale) [21, 26] | Horseweed plant response rating (0 to 100 scale) [21, 27] | Ragweed plant response rating (0 to 100 scale) [25, 26]
20: Corn plant response rating (0 to 100 scale) (corn (Zea mays) [5]; 125 g ai/ha) | Oat, Wild plant response rating (0 to 100 scale) ([8]; 125 g ai/ha)
